Measurements as given in patent US20130202594A1, “ALK1 Antagonists and Their Uses in Treating Renal Cell Carcinoma” (priority 2012, published 2013).
“Also recorded” adds a separate entry of the source.

Experiments:
[1] = molecular target: GDF8 (Homo sapiens, UniProt O14793); assay: Biacore binding to hALK1-Fc: GDF8
Description: (§1) ALK1 is a type 1 receptor for ligands of the TGFβ family. Multiple members of the TGFβ family were tested for binding to a human ALK1-Fc fusion protein, using a Biacore™ system.

[2] = molecular target: T1, BMP4 (Homo sapiens, UniProt P12644); assay: Biacore binding to hALK1-Fc: BMP4
T1 sequence (P12644 293-408): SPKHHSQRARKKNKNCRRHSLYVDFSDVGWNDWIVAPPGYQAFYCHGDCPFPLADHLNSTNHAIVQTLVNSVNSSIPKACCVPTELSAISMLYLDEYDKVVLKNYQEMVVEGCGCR
Description: as §1

[3] = tested on: angiogenesis in chick chorioallantoic membrane; assay: CAM (chick chorioallantoic membrane) angiogenesis assay; assay type: in vivo
Source text: In preferred embodiments, an ALK1 ECD polypeptide binds to one or more of GDF5, GDF6, GDF7, BMP9 and BMP10. […] Binding may be assessed using purified proteins in solution or in a surface plasmon resonance system, such as a Biacore™ system. […] Bioassays for angiogenesis inhibitory activity include the chick chorioallantoic membrane (CAM) assay, the mouse corneal micropocket assay, or an assay known in the art for measuring the effect of administering isolated or synthesized proteins on implanted tumors. The CAM assay is described by O'Reilly, et al., in “Angiogenic Regulation of Metastatic Growth” Cell, 1994; 79 (2):315-328. Briefly, 3 day old chicken embryos with intact yolks are separated from the egg and placed in a petri dish. After 3 days of incubation, a methylcellulose disc containing the protein to be tested is applied to the CAM of individual embryos. After 48 hours of incubation, the embryos and CAMs are observed to determine whether endothelial growth has been inhibited. The mouse corneal micropocket assay involves implanting a growth factor-containing pellet, along with another pellet containing the suspected endothelial growth inhibitor, in the cornea of a mouse and observing the pattern of capillaries that are elaborated in the cornea. Other assays are described in the Examples.
VEGF and FGF are well-known to stimulate angiogenesis. A CAM (chick chorioallantoic membrane) assay system was used to assess the angiogenic effects of GDF7.
ALK1-Fc fusions were tested for anti-angiogenic activity in the CAM assay.
ALK1-Fc proteins and a commercially available, anti-angiogenic anti-VEGF monoclonal antibody were compared in the CAM assay. The ALK1-Fc proteins had similar potency as compared to anti-VEGF. The anti-VEGF antibody bevacizumab is currently used in the treatment of cancer and macular degeneration in humans.

[4] = tested on: MDA-MB-231 cell line; assay: MDA-MB-231-Luc orthotopic breast cancer xenograft; assay type: in vivo, mouse; details: similar experiment; dose levels as low as 3 mg/kg
Source text: The MDA-MB-231 breast cancer cell line (derived from ER− cells) was stably transfected with the luciferase gene to allow for the in vivo detection of tumor growth and potential metastasis. In this study, 1×10^6 MDA-MB-231-Luc cells were implanted orthotopically in the mammary fat pad of athymic nude mice (Harlan). Tumor progression was followed by bioluminescent detection using an IVIS Spectrum imaging system (Caliper Life Sciences). An increase in the luminescence (number of photons detected) corresponds to an increase in tumor burden.
Thirty female nude mice were injected with 1×10^6 tumor cells into the mammary fat pad. Three days after tumor implantation the mice were treated with either vehicle control or mALK1-Fc (30 mg/kg) twice per week by subcutaneous (SC) injection. […] This may be expected of an antiangiogenic compound in that tumors may be able to survive to a certain size before requiring new blood vessel formation to support continued growth.

[5] = tested on: MCF-7 cell line; assay: MCF-7 orthotopic breast cancer xenograft; assay type: in vivo, mouse; details: 10 or 30 mg/kg twice per week IP
Description: The estrogen-receptor-positive (ER+), luciferase expressing cell line, MCF-7, was also tested in an orthotopic implantation model. In this model, female nude mice are implanted subcutaneously with a 60 day slow release pellet of 17β-estradiol. Two days following pellet implantation, 5×10^6 MCF-7 tumor cells were implanted into the mammary fat pad. Mice were treated twice per week with hALK1-Fc at 3, 10 and 30 mg/kg, or vehicle control, by the IP route. Tumor progression was followed by bioluminescent imaging on a weekly basis with an IVIS-Spectrum imager (Caliper Life Sciences). In vehicle treated mice tumors progressed rapidly until study day 26 (FIG. 15). After day 26, there were fluctuations in tumor luminescence until the conclusion of the study at day 60 (when the estradiol pellets were depleted). These fluctuations are due to a common feature of this model in that the rapid tumor growth can exceed the angiogenic response of the host animals leading to tumor necrosis and a concomitant drop-off in luminescent signal. The remaining cells continue to grow leading to an increased signal.

[6] = tested on: A498 cells; assay: A498 human RCC tumor xenograft model; assay type: in vivo, mouse; details: for tumor growth, single agent: 10 mg/kg IP 3 times per week, vs Fc
Description: A498 cells, a VHL-deficient human RCC cell line (see Iliopoulos et al., Nature Medicine 1995; 1:822-6), was obtained from the American Type Culture Collection, and cultured in Eagle's minimal essential medium. Media was supplemented with 2 mmol/L L-glutamine, 10% FCS, and 1% streptomycin (50 μg/mL), and cells were cultured at 37° C. with 5% CO2. […] cells were harvested from subconfluent cultures by a brief exposure to 0.25% trypsin and 0.02% EDTA. Trypsinization was stopped with medium containing 10% fetal bovine serum, and the cells were washed once in serum-free medium and resuspended in PBS. Only suspensions consisting of single cells with >90% viability were used for the injections.
To establish human RCC xenografts, A498 tumor cells were injected subcutaneously (1×10^7 cells) into the flanks of 6- to 8-week-old female athymic nude/beige mice (Charles River Laboratories) that were of 20 g average body weight. Tumors developed in >80% of the mice and were usually visible within a few days of implantation. Mice were treated with Fc or ALK-Fc when the tumors had grown to a diameter of 12 mm. ALK-Fc (10 mg/kg) was administered 3 times per week intraperitoneally. Tumors were measured daily while mice were on treatment.
A498 cell culture and xenograft establishment was performed as described in Example 14. Mice were treated with vehicle plus Fc, sunitinib plus Fc, vehicle plus ALK-Fc, or subitinib plus ALK-Fc when the tumors had grown to a diameter of 12 mm. Sunitinib (53.6 mg/kg; Pfizer) was administered 6 of 7 days per week by gavage beginning. ALK1-Fc (10 mg/kg) was administered 3 times per week intraperitoneally. Tumors were measured daily while mice were on treatment.

hALK1-Fc: extracellular domain of human ALK1 (amino acids 22-120) fused to a human IgG1 Fc with a minimal linker (SEQ ID NO:3/14)
binding to hALK1-Fc [1]: failed to show substantial binding
binding to hALK1-Fc [2]: failed to show substantial binding; also recorded: only limited binding
anti-angiogenic effect compared with anti-VEGF monoclonal antibody [3]: comparable to the effects of the anti-VEGF antibody
anti-angiogenic effect on angiogenesis stimulated by VEGF, FGF and GDF7 [3]: inhibits angiogenesis stimulated by VEGF, FGF and GDF7
tumor progression (bioluminescence) [4]: similar, if slightly lesser, effects
tumor size / growth (bioluminescence) [5]: maintain tumor size at a constant level; also recorded: significant growth-delaying effect
tumor growth, single agent [6]: inhibit tumor growth as a single agent
tumor growth, single agent ([6]; listed as ALK-Fc): dramatically slowed tumor growth
effect on tumor growth inhibiting activity of sunitinib ([6]; administered in combination with sunitinib): substantially increased the tumor growth inhibiting activity of sunitinib
tumor growth ([6]; combination study, sunitinib 53.6 mg/kg gavage, ALK1-Fc 10 mg/kg IP): slowed tumor growth
